Data on eight compounds can be found in patent publication US4737518A, “Lipid derivatives, their production and use” (Takeda Chemical Industries, Ltd., priority 1984, dated 1988).

Structures can show the parent of a compound that is named as a salt.

In assay [1] the test system is rabbit platelet aggregation by PAF. The assay is described as follows: Inhibitory activity on rabbit platelet aggregation by PAF. Particulars: Oryctolagus cuniculus, PAF 1×10^-8 M, read-out: rate of inhibition of rabbit platelet aggregation by PAF; for inhibition at 1 µM: test drug 1 × 10^-6 M; for inhibition at 30 µM: test drug 3 × 10^-5 M; for inhibition at 3 µM: test drug 3 × 10^-6 M; for inhibition at 0.3 µM: test drug 3 × 10^-7 M. It counts as cell-based.

Another assay has as its system PAF-induced death. The assay is described as follows: Prevention activity against PAF-induced death in mice. Conditions: for (Mice survived)/(mice employed): PAF 50 μg/kg i.v., control 3/16. The class given is in vivo, mouse (male Jc1-ICR). On the procedure: Prevention activity against PAF-induced death in mice
The test drug was investigated for the preventive activity against shock death to be brought about within 30 min. after 50 μg/kg of PAF in the form of 0.1 ml/kg physiological saline solution was given intravenously to a male Jc1-ICR mouse. The test drug was administered intravenously 5 min. before the injection of PAF.
In accordance with the same procedure as described in Experiment Example 2, the test compounds were investigated for the preventive activity against PAF-induced death in mice.

The test system of a further assay is PAF-induced hypotension. The experiment in a line: Restoring activity against PAF-induced hypotension. The class given is in vivo, rat (male S.D.). Particulars: 3 min after PAF 1 μg/kg i.v., 1 min after test drug. On the procedure: Restoring activity against PAF-induced hypotension
Male S.D. rats, aged 16 weeks, were employed.
Under anesthesia with pentobarbital, cannulas were inserted into the femoral artery and vein of rats for measurement of blood pressure and for administration of a drug, respectively. Three (3) minutes after intravenous administration of 1 μg/kg (0.25% BAS physiological saline solution; volume of 0.2 ml/kg) of PAF, a test drug (physiological saline solution; volume of 0.5 ml/kg) was administered intravenously, and blood pressure was measured for subsequent 1 hour.
The ratio of hypertension by the test drug to hypotension by PAF was taken as a restoration rate.
Restoration rate (%)=[(Blood pressure just before i.v. administration of a test drug)-(Blood pressure 1 min. after i.v. administration of a test drug)/(Blood pressure just before i.v. administration of PAF)-(Blood pressure just before i.v. administration of a test drug)]×100

Another assay deals with HL-60 cells. The experiment in a line: Effect on inducing differentiation of HL-60 cells (NBT-positive cells). It counts as cell-based, human. Conditions: 6 days. On the procedure: Assay of the effects on inducing differentiation of HL-60 cells (human promyelocytic leukemia cells) and Neuro-2a cells (mouse neuroblastoma cells): RPMI-1640 medium (Flow Laboratories, Inc.) supplemented with 20% fetal calf serum (M.A. […] The culture was incubated at 37° C. in a 5% CO2 incubator for 6 days. […] The reaction was allowed to proceed at 37° C. for 20 minutes. The reaction was stopped by cooling with ice, and the cells were washed by means of centrifugation, followed by collecting 3-5×10^4 cells and by subjecting to centrifugation using Cytospin centrifuge to prepare a cell smear, which was fixed with methanol and stained with Kernechtrot solution. On each cell smear, the percentage of NBT-positive cells relative to live cells, […] by examination of a minimum of 200 cells, was expressed as the differentiation extent.

[2] abbreviates: Table 4, 1.0 mg/kg i.v., control 24%.
The mark [3] stands for this setting: Table 4, 0.3 mg/kg i.v., control 24%.

On to `CCCCCCCCCCCCCCCCCCOCC(COC(=O)N(CC[N+](C)(C)C)C(C)=O)OC(C)=O` (centres unmarked) [Example 3, 2-O-Acetyl-3-O-[N-acetyl-N-(2'-trimethylammonioethyl)]carbamoyl-1-O-octadecylglycerol iodide], for which, in assay [1], the inhibition at 1 µM turned out to be 86%, the inhibition at 30 µM is 100% and the inhibition at 3 µM amounted to 100%. This compound came in with a Survival rate in the assay with PAF-induced death (0.1 mg/kg i.v. 5 min before PAF 50 μg/kg i.v., control 19%) of 38%. For the same compound, the “(Mice survived)/(mice employed)” value in the assay on PAF-induced death (0.1 mg/kg i.v.) is listed as 3/8. The compound further showed a Survival rate in the assay with PAF-induced death (1.0 mg/kg i.v. 5 min before PAF 50 μg/kg i.v., control 19%) of 100%. For the same compound, in the assay with PAF-induced death (1.0 mg/kg i.v.), the “(Mice survived)/(mice employed)” value is listed as 8/8. The “prevention of PAF-induced death (conclusion)” value in the assay with PAF-induced death (0.1 and 1 mg/kg i.v.) is “potent drug for prevention of PAF-induced death”. The compound also came in with a Restoration rate with PAF-induced hypotension (0.5 mg/kg i.v.) of 48%.
On to `CCCCCCCCCCCCCCCCCCNC(=O)OCC(COC(=O)N(CC[N+](C)(C)C)C(C)=O)OC` (centres unmarked) [Example 25, 3-O-[N-Acetyl-N-(2'-trimethylammonioethyl)]carbamoyl-2-O-methyl-1-O-octadecylcarbamoylglycerol iodide], for which, in assay [1], the inhibition at 1 µM was 40%, the inhibition at 30 µM came out at 100% and the inhibition at 3 µM was found to be 100%. The compound also had a Survival rate with PAF-induced death (setting [2]) of 94%. Moreover, the Restoration rate in the assay on PAF-induced hypotension (1.0 mg/kg i.v.) worked out at 69%.
Turning to `CCCCCCCCCCCCCCCCCCNC(=O)OCC(COC(=O)N(CC[N+]1(C)CCCC1)C(C)=O)OC` (centres unmarked) [Example 35, 3-O-[N-Acetyl-N-(2'-N-methylpyrrolidinioethyl)]carbamoyl-2-O-methyl-1-O-octadecylcarbamoylglycerol hydrochloride], in assay [1], the inhibition at 30 µM stood at 100%, the inhibition at 3 µM worked out at 100% and the inhibition at 0.3 µM amounted to 45%. In the assay on PAF-induced death (setting [2]), the Survival rate worked out at 80%. In the assay on PAF-induced hypotension (0.5 mg/kg i.v.), this compound came in with a Restoration rate of 73%.
On to `CCCCCCCCCCCCCCCCCCNC(=O)OCC(COC(=O)N(CC[N+]1(C)CCCC1)C(=O)OC)OC` (centres unmarked) [Example 43, 3-O-[N-Methoxycarbonyl-N-(2'-N-methylpyrrolidinioethyl)]carbamoyl-2-O-methyl-1-O-octadecylcarbamoylglycerol iodide], for which, in assay [1], the inhibition at 30 µM was 100% and the inhibition at 3 µM amounted to 100%. The compound also had a Survival rate with PAF-induced death (setting [2]) of 100%. Further, the Restoration rate in the assay with PAF-induced hypotension (0.5 mg/kg i.v.) is recorded as 83%.
Consider `CCCCCCCCCCCCCCCCCCNC(=O)OCC(COC(=O)N(CC1CCC[N+]1(C)CC)C(C)=O)OC` (centres unmarked) [Example 45, 3-O-[N-Acetyl-N-(1'-ethyl-1'-methylpyrrolidinio-2'-yl)methyl]carbamoyl-2-O-methyl-1-O-octadecylcarbamoylglycerol iodide], for which, in assay [1], the inhibition at 30 µM amounted to 100%, the inhibition at 3 µM was 100% and the inhibition at 0.3 µM was 41%. This compound also returned a Survival rate in the assay on PAF-induced death (setting [3]) of 77%. In the assay on PAF-induced death (setting [2]), the Survival rate is on record as 100%. In addition, the “Maximum differentiation extent: Optimal conc.” value with HL-60 cells was 0.48 µg/mL. Further, in the assay on HL-60 cells (Homo sapiens, HL-60, 144 h, at optimal conc., NBT-positive relative to live cells, read-out: Maximum differentiation extent: Differentiation), the Emax is 72%.
With `CCCCCCCCCCCCCCCCCCOCC(CN1CC(=O)N(CC[N+](C)(C)C)C1=O)OC(C)=O` (centres unmarked) [Example 91, 1-[1-(2-Acetoxy-3-ocatadecyloxy)propyl]-3-(2-trimethylammonioethyl)hydantoin chloride.], in assay [1], the inhibition at 30 µM turned out to be 100%, the inhibition at 3 µM was determined as 100% and the inhibition at 0.3 µM was found to be 78%. Further, in the assay with PAF-induced death (setting [2]), the Survival rate is reported as 100%. Also, the Restoration rate in the assay on PAF-induced hypotension (0.5 mg/kg i.v.) is listed as 77%.
For the compound `CCCCCCCCCCCCCCCCCCOCC(CN1CC(=O)N(CC[n+]2ccsc2)C1=O)OC(C)=O` (centres unmarked) [Example 92, 1-[1-(2-Acetoxy-3-octadecyloxy)propyl]-3-(2-thiazolioethyl)hydantoin chloride], in assay [1], the inhibition at 30 µM was 100% and the inhibition at 3 µM came to 100%. This compound also had a Survival rate in the assay with PAF-induced death (setting [3]) of 77%. Further, in the assay with PAF-induced death (setting [2]), the Survival rate is reported as 100%. Moreover, in the assay on PAF-induced hypotension (0.5 mg/kg i.v.), the Restoration rate was 77%.
In the case of `CCCCCCCCCCCCCCCCCCNC(=O)OCC(COC(=O)N(Cc1cccc[n+]1C)C(C)=O)OC` (centres unmarked) [Example 104, 3-O-[N-Acetyl-N-(N-methylpyridnio-2-yl)methyl]carbamoyl-2-O-methyl-1-O-octadecylcarbamoylglycerol chloride], in assay [1], the inhibition at 30 µM amounted to 100%, the inhibition at 3 µM turned out to be 100% and the inhibition at 0.3 µM is 100%. In addition, the Restoration rate with PAF-induced hypotension (0.1 mg/kg i.v.) amounted to 94%.

By inhibition is commonly meant the share of the control response that was lost under treatment.
